Test results published in PubChem BioAssay AID330 (DTP/NCI, 2004).
Several values for one entry are separate records, joined by “and”; a condition that tells them apart may be missing. Equal entries are not always repeated. Inconclusive results and toxic doses are left out. Rule for the calls: active = survival T/C of 150% or more; inactive = T/C below 125% in these data.

Test system: P388 leukemia ip, CD2F1 mice, survival T/C
Assay: NCI In Vivo Anticancer Drug Screen. Data for tumor model P388 Leukemia (intraperitoneal) in CD2F1 (CDF1) mice
Settings: endpoint: median survival time, higher = longer survival
Outline: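 Mice carrying the transplanted tumor received test compound or vehicle. Survival was recorded in each group, and the value is the treated-group measurement divided by that of the vehicle-treated control group.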

[1] = dose: 60.0 mg/kg/injection, schedule: Q01DX005 (ip), vehicle: saline with Tween-80
[2] = dose: 120.0 mg/kg/injection, schedule: Q01DX005 (ip), vehicle: saline with Tween-80
[3] = dose: 240.0 mg/kg/injection, schedule: Q01DX005 (ip), vehicle: saline with Tween-80
[4] = dose: 100.0 mg/kg/injection, schedule: Q01DX001 (ip), vehicle: Klucel (hydroxypropylcellulose) (HPC)
[5] = dose: 200.0 mg/kg/injection, schedule: Q01DX001 (ip), vehicle: Klucel (hydroxypropylcellulose) (HPC)
[6] = dose: 400.0 mg/kg/injection, schedule: Q01DX001 (ip), vehicle: Klucel (hydroxypropylcellulose) (HPC)
[7] = dose: 50.0 mg/kg/injection, schedule: Q01DX009 (ip), vehicle: saline with Tween-80
[8] = dose: 100.0 mg/kg/injection, schedule: Q01DX009 (ip), vehicle: saline with Tween-80
[9] = dose: 200.0 mg/kg/injection, schedule: Q01DX009 (ip), vehicle: saline with Tween-80
[10] = dose: 100.0 mg/kg/injection, schedule: Q04DX003 (ip), vehicle: Klucel (hydroxypropylcellulose) (HPC)
[11] = dose: 200.0 mg/kg/injection, schedule: Q04DX003 (ip), vehicle: Klucel (hydroxypropylcellulose) (HPC)
[12] = dose: 400.0 mg/kg/injection, schedule: Q04DX003 (ip), vehicle: Klucel (hydroxypropylcellulose) (HPC)
[13] = dose: 25.0 mg/kg/injection, schedule: Q01DX009 (ip), vehicle: saline with Tween-80
[14] = dose: 12.5 mg/kg/injection, schedule: Q01DX009 (ip), vehicle: saline
[15] = dose: 50.0 mg/kg/injection, schedule: Q01DX009 (ip), vehicle: Klucel (hydroxypropylcellulose) (HPC)
[16] = dose: 100.0 mg/kg/injection, schedule: Q01DX009 (ip), vehicle: Klucel (hydroxypropylcellulose) (HPC)
[17] = dose: 50.0 mg/kg/injection, schedule: Q01DX009 (ip), vehicle: saline
[18] = dose: 100.0 mg/kg/injection, schedule: Q01DX009 (ip), vehicle: saline
[19] = dose: 200.0 mg/kg/injection, schedule: Q01DX009 (ip), vehicle: saline
[20] = dose: 50.0 mg/kg/injection, schedule: Q01DX005 (ip), vehicle: saline with Tween-80
[21] = dose: 100.0 mg/kg/injection, schedule: Q01DX005 (ip), vehicle: saline with Tween-80
[22] = dose: 200.0 mg/kg/injection, schedule: Q01DX005 (ip), vehicle: saline with Tween-80
[23] = dose: 400.0 mg/kg/injection, schedule: Q01DX009 (ip), vehicle: saline

Measured: T/C

O=C1CCC(c2nc3ccccc3[nH]2)N1Cc1ccccc1 (configuration not stated)
inactive: [1] 97 % of control | [2] 90 % of control | [3] 89 % of control

Nc1nccn2cnnc12
inactive: [4] 100 % of control | [5] 104 % of control | [6] 100 % of control

CC(=O)c1ccccc1N=Nc1ccc(N(CCCl)CCCl)cc1
inactive: [7] 108 % of control | [8] 106 % of control | [9] 112 % of control

Clc1cc2c(c3ncccc13)OCN(Cc1ccccc1)C2
inactive: [10] 91 % of control | [11] 92 % of control | [12] 92 % of control

O=C1CC(c2ccccc2)=NO1
inactive: [10] 94 % of control | [11] 99 % of control | [12] 100 % of control

CC1(C)C2(C(N)=O)C(=O)NC(=O)C12C(=O)O (configuration not stated)
inactive: dose: 25.0 mg/kg/injection, schedule: Q04DX002 (ip), vehicle: saline with Tween-80 95 % of control | dose: 50.0 mg/kg/injection, schedule: Q04DX002 (ip), vehicle: saline with Tween-80 104 % of control | dose: 100.0 mg/kg/injection, schedule: Q04DX002 (ip), vehicle: saline with Tween-80 103 % of control

COc1cc(OC)c(NC(=O)ON2C(=O)c3ccccc3C2=O)cc1Cl
inactive: dose: 12.5 mg/kg/injection, schedule: Q01DX009 (ip), vehicle: saline with Tween-80 119 % of control | [13] 122 % of control | [7] 122 % of control | [8] 110 % of control

C=COS(=O)O
inactive: dose: 3.12 mg/kg/injection, schedule: Q01DX009 (ip), vehicle: saline 104 % of control | dose: 6.25 mg/kg/injection, schedule: Q01DX009 (ip), vehicle: saline 104 % of control | [14] 105 % of control

O=C(Nc1ccc2ccccc2c1)C1C(=O)C(=O)N(c2ccc3ccccc3c2)C1=O (configuration not stated)
inactive: [15] 106 % of control | [16] 106 % of control | dose: 200.0 mg/kg/injection, schedule: Q01DX009 (ip), vehicle: Klucel (hydroxypropylcellulose) (HPC) 108 % of control

NC(Cc1ccc(OC(c2ccccc2)(c2ccccc2)c2ccccc2)cc1)C(=O)O (configuration not stated)
inactive: [17] 101 % of control | [18] 96 % of control | [19] 90 % of control

COc1ccc(/C=N/Nc2ccc([N+](=O)[O-])cc2[N+](=O)[O-])cc1
inactive: dose: 50.0 mg/kg/injection, schedule: Q04DX003 (ip), vehicle: saline with Tween-80 93 % of control | dose: 100.0 mg/kg/injection, schedule: Q04DX003 (ip), vehicle: saline with Tween-80 94 % of control | dose: 200.0 mg/kg/injection, schedule: Q04DX003 (ip), vehicle: saline with Tween-80 88 % of control | dose: 400.0 mg/kg/injection, schedule: Q04DX003 (ip), vehicle: saline with Tween-80 91 % of control

O=C(NC1CC1)c1ccccc1
inactive: [13] 96 % of control | [7] 100 % of control | [8] 87 % of control | [9] 87 % of control

COc1ccc(C(C)(O)C2CC2)cc1 (configuration not stated)
inactive: [4] 107 % of control | [5] 103 % of control | [6] 103 % of control

CC(C)c1cccc(C(C)C)c1NC(=O)CCc1n[nH]c(=S)o1
inactive: [20] 105 % of control | [21] 106 % of control | [22] 105 % of control

COc1cc(Br)cc(OC)c1N=Cc1ccccc1
inactive: [7] 102 % of control | [8] 97 % of control | [9] 100 % of control

COc1ccc(CC(=O)c2ccc3c(c2O)C=CC(C)(C)O3)cc1OC
inactive: [20] 98 % of control | [21] 99 % of control | [22] 89 % of control

OCc1nccn1-c1ccccc1
inactive: dose: 25.0 mg/kg/injection, schedule: Q04DX002 (ip), vehicle: suspension in saline 100 % of control | dose: 50.0 mg/kg/injection, schedule: Q04DX002 (ip), vehicle: suspension in saline 99 % of control | dose: 100.0 mg/kg/injection, schedule: Q04DX002 (ip), vehicle: suspension in saline 107 % of control | dose: 200.0 mg/kg/injection, schedule: Q04DX002 (ip), vehicle: suspension in saline 100 % of control

CN(C)c1n[nH]c(N)n1
inactive: [14] 101 % of control | dose: 25.0 mg/kg/injection, schedule: Q01DX009 (ip), vehicle: saline 103 % of control | [17] 108 % of control and 95 % of control and 97 % of control | [18] 103 % of control and 104 % of control and 108 % of control | [19] 105 % of control and 97 % of control | [23] 105 % of control and 111 % of control and 113 % of control

CCN(Cc1cccc(S(=O)(=O)O)c1)c1ccc(C(=C2C=CC(=[N+](CC)Cc3cccc(S(=O)(=O)O)c3)C=C2)c2ccc(O)cc2S(=O)(=O)O)cc1
inactive: [1] 107 % of control | [2] 98 % of control | [3] 107 % of control

Cn1cc(C#N)c(=O)[nH]c1=O
inactive: dose: 50.0 mg/kg/injection, schedule: Q01DX005 (ip), vehicle: Klucel (hydroxypropylcellulose) (HPC) 101 % of control | dose: 100.0 mg/kg/injection, schedule: Q01DX005 (ip), vehicle: Klucel (hydroxypropylcellulose) (HPC) 98 % of control | dose: 200.0 mg/kg/injection, schedule: Q01DX005 (ip), vehicle: Klucel (hydroxypropylcellulose) (HPC) 104 % of control

COc1ccc(C2N=C(N)Nc3nc[nH]c32)c(OC)c1 (configuration not stated)
inactive: dose: 50.0 mg/kg/injection, schedule: Q01DX009 (ip), vehicle: suspension in saline 102 % of control | dose: 100.0 mg/kg/injection, schedule: Q01DX009 (ip), vehicle: suspension in saline 115 % of control | dose: 200.0 mg/kg/injection, schedule: Q01DX009 (ip), vehicle: suspension in saline 109 % of control

NC(=S)c1ccc(Br)cc1
inactive: [15] 97 % of control | [16] 104 % of control

CC1(OC(=O)c2ccc([N+](=O)[O-])cc2)CC(C)(C)[N+]([O-])=N1 (configuration not stated)
inactive: dose: 12.5 mg/kg/injection, schedule: Q01DX009 (ip), vehicle: other 102 % of control | dose: 25.0 mg/kg/injection, schedule: Q01DX009 (ip), vehicle: other 102 % of control | dose: 50.0 mg/kg/injection, schedule: Q01DX009 (ip), vehicle: other 109 % of control | dose: 100.0 mg/kg/injection, schedule: Q01DX009 (ip), vehicle: other 100 % of control | dose: 200.0 mg/kg/injection, schedule: Q01DX009 (ip), vehicle: other 94 % of control

C/C=C/C=C1/OC(C)=C(C(=O)OCC)C1=O
inactive: dose: 6.25 mg/kg/injection, schedule: Q01DX009 (ip), vehicle: Klucel (hydroxypropylcellulose) (HPC) 107 % of control | dose: 12.5 mg/kg/injection, schedule: Q01DX009 (ip), vehicle: Klucel (hydroxypropylcellulose) (HPC) 111 % of control | [15] 123 % of control

CN(/N=C/c1ccccc1O)C(=O)c1ccccc1N
inactive: [7] 105 % of control | [8] 107 % of control | [9] 104 % of control

O=C1NCC(=O)C(=O)N1
inactive: [17] 100 % of control and 106 % of control | [18] 101 % of control and 103 % of control | [19] 100 % of control and 110 % of control | [23] 103 % of control and 105 % of control
